Laboratory results as given in patent US5663207A, “Gem-dichlorocyclopropanes as antitumor agents” (priority 1995, dated 1997).
“Also recorded” adds a separate entry of the source.

Assays:
[1] = molecular target: T1, estrogen receptor (Rattus norvegicus, UniProt P06211); assay: Receptor binding assay: displacement of [3H]-estradiol from rat uterine cytosol; design: species or system rat (Sprague-Dawley); conditions: for RBA (relative binding affinity): relative to estradiol = 100%, average of duplicate determinations minus nonspecific binding
T1 construct: ovariectomized rat uterine cytosolic estrogen receptor preparation; from tissue; host or cells: uterine cytosol of ovariectomized Sprague-Dawley rats (immature rats from Sasco are named as uterus source, mature ovariectomized rats)
T1 sequence (P06211 1-600): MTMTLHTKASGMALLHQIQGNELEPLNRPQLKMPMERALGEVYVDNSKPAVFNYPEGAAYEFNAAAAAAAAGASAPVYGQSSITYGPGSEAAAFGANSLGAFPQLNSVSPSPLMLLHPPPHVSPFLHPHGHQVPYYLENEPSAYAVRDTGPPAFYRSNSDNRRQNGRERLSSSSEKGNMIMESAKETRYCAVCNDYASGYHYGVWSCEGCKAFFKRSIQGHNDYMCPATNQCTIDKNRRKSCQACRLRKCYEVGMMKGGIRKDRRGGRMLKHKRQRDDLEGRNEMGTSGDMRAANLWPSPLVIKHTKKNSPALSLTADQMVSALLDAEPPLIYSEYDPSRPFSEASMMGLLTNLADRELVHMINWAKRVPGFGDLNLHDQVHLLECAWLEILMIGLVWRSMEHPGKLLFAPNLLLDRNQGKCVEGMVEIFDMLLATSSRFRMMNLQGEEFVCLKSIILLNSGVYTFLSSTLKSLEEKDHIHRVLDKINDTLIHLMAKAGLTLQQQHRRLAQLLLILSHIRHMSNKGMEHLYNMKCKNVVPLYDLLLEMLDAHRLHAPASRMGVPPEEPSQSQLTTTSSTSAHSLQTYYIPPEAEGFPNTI
Text: The biological evaluation of the test compounds consisted of the in vitro rat cytosolic estradiol receptor binding assay, the in vivo immature mouse uterotrophic (estrogenic) and antiuterotrophic (antiestrogenic) assays, and the in vitro suppression of the proliferation of the ER positive MCF-7 human breast cancer cell line. Estradiol (pure agonist), TAM (agonist in mice and antagonist in MCF-7), MER 25 (pure antagonist) and Analog II (antagonist in mice) were used in the assay as standards.
(§1) Vital-free immature female Swiss-Webster mice were obtained at 17-19 days of age from Sasco weighing 8-10 g, and were used in the uterotrophic and antiuterotrophic assays. Immature female Sprague-Dawley rats, obtained at 17-19 days of age from Sasco, weighing 28-33 g, were used as sources of uteri for the estradiol receptor binding assay. Animals were housed in wire topped polycarbonate cages at six animals per cage, with the environment controlled at 25° C. and a 12 h light/dark cycle. The animals received a diet of Wayne Lab Blox rodent chow and tap water ad libitum.
The RBAs of the test compounds were determined by the displacement of [^3 H]-estradiol in vitro, as described previously (DAY, B. W., […], R. A., JAIN, P., PENTO, J. T., MOUSISSIAN, G. K. AND MEYER, K. L. (1991), "Synthesis and biological evaluation of a series of 1,1-dichloro-2,2,3-triarylcyclopropanes as pure antiestrogens", Journal of Medicinal Chemistry, 34, 842; KORENMAN, S. G. (1969), "Comparative binding affinity of estrogens and its relation to estrogenic potency", Steroid, 13, 163). Mature female Sprague-Dawley rats were ovariectomized at least two weeks prior to the receptor binding experiment. Each test compound was assayed at three concentrations in duplicate over a range of 10^-3 -10^-5 M and 10^-6 -10^-8 M for the estradiol standard. The non-specific binding was determined by a parallel incubation of each compound with the addition of diethylstilbestrol to give a final concentration of 2×10^-5 M DES which was sufficient to saturate all the estrogen receptors present in the cytosolic fraction. Specific displacement for each compound was determined by subtraction of nonspecific displacement from total displacement. The [^3 H]-estradioldisplacement curve for each test compound was determined by linear repression analysis and plotted graphically. The relative binding affinity for each compound was calculated (BLISS, C.I. (1967), "The statistics in biology", McGraw Hill, Inc: New York).
^a Determined by competitive radiometric binding assay with rat
uterine cytosol as a source of receptor, [^3 H]estradiol as tracer,
and dextrancoated charcoal as absorbant for free ligand.
^c Binding affinities are expressed relative to that of estradiol =
100% (RBA = relative binding affinity) and are the average of duplicate
determinations minus nonspecific binding.
The relative binding affinities (RBAs), as determined by the competitive radiometric binding assay and measured by [^3 H]-estradiol displacement from the ovariectomized rat uterine cytosolic estrogen receptor preparation, after subtracting non-specific receptor binding, were calculated for all of the synthesized target compounds, TAM, MER 25, Analog II, and estradiol. The displacement curves were plotted as percent receptor-bound [^3 H]-estrodiol versus concentration of test compounds (not shown) and the receptor binding affinity of each compound is presented in Table II.

[2] = test system: Immature Swiss-Webster female mice (uterine weight); assay: Uterotrophic assay for estrogenic activity in immature mice; assay type: in vivo, mouse (Swiss-Webster)
Text: (§2) The biological evaluation of the test compounds consisted of the in vitro rat cytosolic estradiol receptor binding assay, the in vivo immature mouse uterotrophic (estrogenic) and antiuterotrophic (antiestrogenic) assays, and the in vitro suppression of the proliferation of the ER positive MCF-7 human breast cancer cell line.
as §1
Immature Swiss-Webster female mice (8-15 g) at 17-19 days of age were used. Estradiol was used in the dosage range of […] (total dose) as the assay standard. Each cyclopropyl analogue was examined at doses of 5, 25, and 100 μg (total dose). […] Estrogenic activity was measured as an increase in uterine weight produced by each test compound.

[3] = test system: Immature Swiss-Webster female mice (estradiol-stimulated uterine weight); assay: Antiuterotrophic assay for antiestrogenic activity in immature mice; assay type: in vivo, mouse (Swiss-Webster); conditions: 0.4, 0.8, and 1.6 mg; three-day assay; estradiol 0.03 μg
Text: as §2
as §1, with “The animals received a diet of Wayne Lab Blox rodent chow and tap water ad libitum.” left out
The antiestrogenic assay was conducted as described for the estrogenic assay, except that each mouse in the cyclopropyl treatment groups received a standard stimulating dose of estradiol (0.03 μg) in sesame oil (0.1 mL) and the test compounds or MER 25 were administered in isopropyl myristate (0.05 mL) in a dosage range of 0.4, 0.8 and 1.6 mg (total dose). […] Antiestrogenic activity was measured as a decrease in the estradiol-stimulated […] response in groups that received both the test compound and estradiol as compared to the group treated only with estradiol.

## CC(=O)Oc1ccc([C@H]2[C@@H](c3ccccc3)C2(Cl)Cl)cc1 (relative stereo) [Compound 10, 1,1-Dichloro-cis-2-(p-acetoxyphenyl)-3-phenylcyclopropane]
[1]
  RBA (relative binding affinity): 0.07%

## Oc1ccc(C2(c3ccc(O)cc3)C(Cl)(Cl)C23CCCCC3)cc1 [Compound 30, 1,1-Dichloro-2,2-bis-(p-hydroxyphenyl)-spiro[2.5]octane]
[1]; among the compounds tested
  RBA ranking (in words): comparable to tamoxifen; also recorded: the highest
[1]
  RBA (relative binding affinity): 0.62%
[2]; doses of 5, 25 and 100 μg (total dose)
  uterine weight response (estrogenic activity, in words): dose-dependent increase in uterine weight
[2]; of that of estradiol, doses of 5, 25, and 100 μg
  relative potency (uterotrophic) versus estradiol: 0.05%
[3]
  antiestrogenic activity: effect on estradiol-induced uterine weight gain (in words): augmented uterotrophic effects beyond the stimulating dose of estradiol
